Laboratory results taken from publication PMC12410356 (International Journal for Parasitology: Drugs and Drug …, 2025).

Tests used:
[1] = system: E. multilocularis metacestode vesicles; test: Phosphoglucose isomerase (PGI) release assay (damage-marker release) on metacestode vesicles; type: cell-based, Echinococcus multilocularis; conditions: 10 μM; for PGI d5 (relative PGI release): 5 days; for PGI d12 (relative PGI release): 12 days
[2] = system: E. multilocularis metacestode vesicles; test: Metacestode vesicle viability assay (ATP, CellTiter-Glo); type: cell-based, Echinococcus multilocularis
Description: Viability was assessed after 12 days using the same metacestode vesicles as for the PGI release assay. Triton X-100 was added to each well to a final concentration of 0.1 %. Subsequently the metacestode vesicles were broken mechanically and 50 μL of the supernatant was mixed with 50 μL of CellTiter-Glo® buffer (Promega, Dübendorf, Switzerland). Measurements were performed on a HIDEX Sense microplate reader.

[3] = overview screen, singlets, relative to 0.1 % Triton X-100, DMSO subtracted
[4] = overview screen, 10 μM, singlets, 12 days, relative to DMSO control
[5] = confirmation screen, triplicates, mean

SMILES: N[C@H](CCC(=O)N[C@@H](Cc1c[nH]c2ccccc12)C(=O)O)C(=O)O [MMV1581033]
- PGI d5 (relative PGI release) [1, 3]: 0.0006202%
- PGI d12 (relative PGI release) [1, 3]: -0.6563%
- Viability d12 (relative viability) [2, 4]: 121.646%

SMILES: CN(C)CCNC(=O)c1cccc2cccnc12 [MMV811071]
- PGI d5 (relative PGI release) [1, 3]: 0.8254%
- PGI d12 (relative PGI release) [1, 3]: 33.0305%
- Viability d12 (relative viability) [2, 4]: 78.9047%

SMILES: Cc1onc(-c2ccccc2Cl)c1C(=O)N[C@@H]1C(=O)N2[C@@H]1SC(C)(C)[C@@H]2C(=O)O [MMV002740]
- PGI d5 (relative PGI release) [1, 3]: -1.463%
- PGI d12 (relative PGI release) [1, 3]: -24.5158%
- Viability d12 (relative viability) ([2]; 10 µM): 55.1081%

SMILES: CN(Cc1ccc(C(C)(C)C)cc1)Cc1cccc2ccccc12.Cl [MMV637104]
- PGI d5 (relative PGI release) [1, 3]: -1.862%
- PGI d12 (relative PGI release) [1, 3]: -24.2411%
- Viability d12 (relative viability) [2, 4]: 73.8114%

SMILES: CONC(=N)c1ccc(-c2ccc(-c3ccc(C(=N)NOC)cc3)o2)cc1 [MMV000059]
- PGI d5 (relative PGI release) [1, 3]: -1.411%
- PGI d12 (relative PGI release) [1, 3]: -24.9567%
- Viability d12 (relative viability) [2, 4]: 226.694%

SMILES: CC(C)Oc1cccc(NC(=O)c2ccccc2C(F)(F)F)c1 [MMV1009286]
- PGI d5 (relative PGI release) [1, 3]: -2.405%
- PGI d12 (relative PGI release) [1, 3]: -25.3832%
- Viability d12 (relative viability) [2, 4]: 77.2348%

SMILES: N#CCN1C(=O)COc2cc(F)c(N3C(=O)c4ccccc4C3=O)cc21 [MMV1579785]
- PGI d5 (relative PGI release) [1, 3]: -1.9012%
- PGI d12 (relative PGI release) [1, 3]: -13.7258%
- Viability d12 (relative viability) [2, 4]: 95.5206%

SMILES: Fc1ccc(-c2nc(-c3c[nH]c4ccc(Br)cc34)[nH]c2-c2ccc(F)cc2)cc1 [MMV1593537]
- PGI d5 (relative PGI release) [1, 5]: 0.49%
- PGI d12 (relative PGI release) [1, 5]: -0.0663%
- PGI d5 (relative PGI release) [1, 3]: 27.6196%
- PGI d12 (relative PGI release) [1, 3]: 72.794%
- Viability d12 (relative viability) ([2]; confirmation screen, 10 μM, triplicates, mean, 12 days): 69.22%
- Viability d12 (relative viability) [2, 4]: 8.099%

SMILES: Nc1nc(NC2Cc3ccc(F)cc3C2)nc(N2CCCCC2)n1 (stereo not drawn) [MMV1580839]
- PGI d5 (relative PGI release) [1, 3]: -3.67%
- PGI d12 (relative PGI release) [1, 3]: -6.152%
- Viability d12 (relative viability) [2, 4]: 110.365%

SMILES: C[C@H](NC(CC(=O)c1ccccc1C(F)(F)F)C(=O)O)c1ccccc1 (stereo partly drawn) [MMV1579778]
- PGI d5 (relative PGI release) [1, 3]: -3.315%
- PGI d12 (relative PGI release) [1, 3]: -4.896%
- Viability d12 (relative viability) [2, 4]: 114.059%

SMILES: O=C(O)[C@H]1C2CCC(CC2)[C@@H]1Nc1nc(-c2c[nH]c3ncc(F)cc23)ncc1F [MMV1593516]
- PGI d5 (relative PGI release) [1, 3]: 2.198%
- PGI d12 (relative PGI release) [1, 3]: -18.5586%
- Viability d12 (relative viability) [2, 4]: 121.454%

SMILES: O=c1cc(NCCCN[C@@H]2CCOc3c(Br)cc(Br)cc32)[nH]c2ccsc12 [MMV1578884]
- PGI d5 (relative PGI release) [1, 3]: 13.7393%
- PGI d12 (relative PGI release) [1, 3]: 54.0946%
- Viability d12 (relative viability) [2, 4]: 55.812%

SMILES: CCc1cc(CCCOc2c(C)cc(-c3noc(C(F)(F)F)n3)cc2C)on1 [MMV1634556]
- PGI d5 (relative PGI release) [1, 3]: 0.6182%
- PGI d12 (relative PGI release) [1, 3]: -18.063%
- Viability d12 (relative viability) [2, 4]: 121.169%

SMILES: COc1cc(Cc2cnc(N)nc2N)cc(OC)c1OC [MMV000028]
- PGI d5 (relative PGI release) [1, 3]: -3.0237%
- PGI d12 (relative PGI release) [1, 3]: -24.4435%
- Viability d12 (relative viability) [2, 4]: 71.724%

SMILES: CC(C)(C)c1ccc(Oc2ccc(N)cc2)cc1 [MMV1174026]
- PGI d5 (relative PGI release) [1, 3]: -0.5482%
- PGI d12 (relative PGI release) [1, 3]: 16.4911%
- Viability d12 (relative viability) [2, 4]: 305.195%

SMILES: CC(C)(C)c1ccc(OCCn2nc(C(=O)O)c3ccccc3c2=O)cc1 [MMV1634387]
- PGI d5 (relative PGI release) [1, 3]: -1.414%
- PGI d12 (relative PGI release) [1, 3]: -12.4336%
- Viability d12 (relative viability) [2, 4]: 144.45%

SMILES: COC1CC2CCC(C)C(O)(O2)C(=O)C(=O)N2CCCCC2C(=O)OC(C(C)CC2CCC(OCCO)C(OC)C2)CC(=O)C(C)/C=C(\C)C(O)C(OC)C(=O)C(C)CC(C)/C=C/C=C/C=C/1C (stereo not drawn) [MMV639951]
- PGI d5 (relative PGI release) [1, 3]: -0.3944%
- PGI d12 (relative PGI release) [1, 3]: -20.0049%
- Viability d12 (relative viability) [2, 4]: 85.7507%

SMILES: C=C(C)[C@@H]1CC[C@]2(C(=O)O)CC[C@]3(C)[C@H](CC[C@@H]4[C@@]5(C)CC[C@H](O)C(C)(C)[C@@H]5CC[C@]43C)[C@@H]12 [MMV638198]
- PGI d5 (relative PGI release) [1, 3]: -0.508%
- PGI d12 (relative PGI release) [1, 3]: -0.6563%
- Viability d12 (relative viability) [2, 4]: 121.139%

SMILES: Clc1cc2nc(C3CCNCC3)n(Cc3ccc(CNCCc4c[nH]cn4)cc3)c2cc1Cl [MMV1580842]
- PGI d5 (relative PGI release) [1, 3]: -1.296%
- PGI d12 (relative PGI release) [1, 3]: -12.8721%
- Viability d12 (relative viability) [2, 4]: 102.952%

SMILES: CCc1c(O)nc2ccc(F)cc2c1OCC1CCC1 [MMV1634395]
- PGI d5 (relative PGI release) [1, 3]: -0.4952%
- PGI d12 (relative PGI release) [1, 3]: -17.3568%
- Viability d12 (relative viability) [2, 4]: 119.991%

SMILES: COc1ccc(COc2cc3oc(=O)c4cc(C(C)O)ccc4c3cc2OC)cc1 (stereo not drawn) [MMV1580799]
- PGI d5 (relative PGI release) [1, 3]: -0.002121%
- PGI d12 (relative PGI release) [1, 3]: -19.4753%
- Viability d12 (relative viability) [2, 4]: 164.074%

SMILES: c1ccc(-c2nnc3c4ccccc4c(N4CCNCC4)nn23)cc1 [MMV1581551]
- PGI d5 (relative PGI release) [1, 3]: -2.787%
- PGI d12 (relative PGI release) [1, 3]: -25.7664%
- Viability d12 (relative viability) [2, 4]: 63.6248%

SMILES: Cn1cc(NC(=O)c2cc(NC(=O)c3ccc(/C=C/c4cnc5ccccc5c4)cc3)cn2C)cc1C(=O)NCCN1CCOCC1 [MMV1634391]
- PGI d5 (relative PGI release) [1, 3]: -0.2305%
- PGI d12 (relative PGI release) [1, 3]: 21.1965%
- Viability d12 (relative viability) [2, 4]: 70.2948%

SMILES: COc1cc(C(C)(C)CCCC(C)C)cc(OC)c1OC [MMV1782102]
- PGI d5 (relative PGI release) [1, 3]: 0.2099%
- PGI d12 (relative PGI release) [1, 3]: -19.1561%
- Viability d12 (relative viability) [2, 4]: 58.4954%

SMILES: Nc1nc(Nc2ccc3nc(-c4ccc(F)cc4)cc(N)c3c2)cc(-c2ccccc2)n1 [MMV1593541]
- PGI d5 (relative PGI release) [1, 3]: 4.554%
- PGI d12 (relative PGI release) [1, 3]: -2.81%
- Viability d12 (relative viability) [2, 4]: 23.9637%

SMILES: Cc1ccc(N2CCC(CCOc3ccc(S(C)(=O)=O)cc3)CC2)nn1 [MMV1634394]
- PGI d5 (relative PGI release) [1, 3]: 0.369%
- PGI d12 (relative PGI release) [1, 3]: -19.1494%
- Viability d12 (relative viability) [2, 4]: 249.705%

SMILES: COc1cc(C)c2c(Oc3cccc(C(F)(F)F)c3)c(OC)cc(NC(C)CCCN)c2n1.O=C(O)CCC(=O)O (stereo not drawn) [MMV000043]
- PGI d5 (relative PGI release) [1, 3]: 8.8572%
- PGI d12 (relative PGI release) [1, 3]: -12.8411%
- Viability d12 (relative viability) [2, 4]: 100.948%

SMILES: O=C(O)c1ccc(-c2ccc(O[C@H]3O[C@H](CO)[C@@H](O)[C@H](O)[C@@H]3O)cc2)cc1 [MMV1633970]
- PGI d5 (relative PGI release) [1, 3]: 0.1129%
- PGI d12 (relative PGI release) [1, 3]: -1.296%
- Viability d12 (relative viability) [2, 4]: 109.047%

SMILES: CC[C@H](CO)NCCN[C@H](CC)CO [MMV687801]
- PGI d5 (relative PGI release) [1, 3]: -2.724%
- PGI d12 (relative PGI release) [1, 3]: 9.893%
- Viability d12 (relative viability) [2, 4]: 117.919%

SMILES: O=c1[nH]cnc2c1ncn2[C@H]1CC[C@@H](CO)O1 [MMV637306]
- PGI d5 (relative PGI release) [1, 3]: -0.8027%
- PGI d12 (relative PGI release) [1, 3]: 5.98%
- Viability d12 (relative viability) ([2]; 10 µM): 229.844%

SMILES: COc1ccc(OCc2ccc(COc3c(Cl)cccc3Cl)cc2)c(Cl)c1 [MMV1580485]
- PGI d5 (relative PGI release) [1, 3]: -0.2661%
- PGI d12 (relative PGI release) [1, 3]: -0.7114%
- Viability d12 (relative viability) [2, 4]: 122.098%

SMILES: CC(C)Nc1ncnc2c1cnn2-c1ccc(Cl)cc1 [MMV108465]
- PGI d5 (relative PGI release) [1, 3]: -2.878%
- PGI d12 (relative PGI release) [1, 3]: 28.117%
- Viability d12 (relative viability) [2, 4]: 65.6735%

SMILES: CN(O)C(=O)c1cc2c(CN3CCC[C@H]3C(N)=O)cn(Cc3ccc(F)cc3)c2cn1 [MMV1782386]
- PGI d5 (relative PGI release) [1, 3]: 0.7573%
- PGI d12 (relative PGI release) [1, 3]: -1.18%
- Viability d12 (relative viability) [2, 4]: 103.448%

SMILES: NC[C@H]1OB(O)c2c(OCCCO)cccc21 [MMV1578566]
- PGI d5 (relative PGI release) [1, 3]: 0.6057%
- PGI d12 (relative PGI release) [1, 3]: -3.009%
- Viability d12 (relative viability) [2, 4]: 7.765%

SMILES: Nc1nc2c(Cc3cccnc3)c[nH]c2c(=O)[nH]1 [MMV1782355]
- PGI d5 (relative PGI release) [1, 3]: -0.9111%
- PGI d12 (relative PGI release) [1, 3]: 0.236%
- Viability d12 (relative viability) [2, 4]: 81.2481%

SMILES: CO/N=C(\C(=O)N[C@@H]1C(=O)N2C(C(=O)OCOC(=O)C(C)(C)C)=C(/C=C\c3scnc3C)CS[C@H]12)c1csc(N)n1 [MMV002560]
- PGI d5 (relative PGI release) [1, 3]: -2.539%
- PGI d12 (relative PGI release) [1, 3]: -11.7788%
- Viability d12 (relative viability) [2, 4]: 19.8723%
